In one data set the target is Trypsin (Homo sapiens, UniProt P07477+P07478+P35030). Nature of the data set: Inhibition of human trypsin by Dixon-plot method. It counts as protein assay.
Another data set addresses Coagulation factor X (Homo sapiens, UniProt P00742). Briefly: Inhibition of human factor 10a by Dixon-plot method.
The nature of data set [1]: Oral bioavailability in rat. It counts as ADME, organism-based. The following applies: in vivo.
The test system of another data set is Rattus norvegicus. Briefly: Stability in iv dosed rat assessed as prodrug conversion. The data set is classed as ADME, organism-based. The following applies: in vivo.
A short description of data set [2]: Total clearance in iv dosed rat. The data set is classed as ADME, organism-based. The following applies: in vivo.
The subject of the next data set is Plasma. Nature of the data set: Anticoagulant activity in human plasma assessed as concentration required to double prothrombin time. The data set is classed as functional.
The nature of data set [3]: Systemic clearance in rat. It counts as ADME, organism-based. The following applies: in vivo.
The next data set has as its system Mus musculus. Briefly: Antithrombotic activity against thromboplastin-induced lethal thromboembolism in po dosed thrombosis mouse model assessed as survival. The data set is classed as functional.
Data set [4] in a line: Oral bioavailability in mouse at 30 mg/kg. The data set is classed as ADME, organism-based. Conditions: in vivo.
A further data set addresses Prothrombin (Homo sapiens, UniProt P00734). Nature of the data set: Inhibition of human thrombin by Dixon-plot method.
The nature of data set [5]: Oral bioavailability in mouse. Conditions: in vivo. The data set is classed as ADME, organism-based.
Data set [6] in a line: Oral bioavailability in rabbit. It counts as ADME, organism-based, Oryctolagus cuniculus. Conditions: in vivo.
A short description of data set [7]: Oral bioavailability in cynomolgus monkey. The data set is classed as ADME, organism-based, Macaca fascicularis. Conditions: in vivo.
A short description of data set [8]: Oral bioavailability in dog. The data set is classed as ADME, organism-based, Canis lupus familiaris. Conditions: in vivo.

By Ki is commonly meant a measure of affinity in units of concentration, obtained from inhibition or displacement. By bioavailability is commonly meant the share of a dose that reaches the circulation, judged against a reference dose that is usually intravenous. In general, clearance refers to the rate of elimination divided by the concentration. One may read the ED50 as the midpoint of the dose-response relation. In general, IC50 refers to the concentration needed to halve the response being measured.

Molecules are shown by their SMILES.

Coagulation factor X, sequence (P00742 41-179 limits assumed): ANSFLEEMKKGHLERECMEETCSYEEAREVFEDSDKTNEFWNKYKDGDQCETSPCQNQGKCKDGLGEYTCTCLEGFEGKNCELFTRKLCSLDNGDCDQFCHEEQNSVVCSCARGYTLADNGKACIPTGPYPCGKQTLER
Coagulation factor X, sequence (P00742 235-488 limits assumed): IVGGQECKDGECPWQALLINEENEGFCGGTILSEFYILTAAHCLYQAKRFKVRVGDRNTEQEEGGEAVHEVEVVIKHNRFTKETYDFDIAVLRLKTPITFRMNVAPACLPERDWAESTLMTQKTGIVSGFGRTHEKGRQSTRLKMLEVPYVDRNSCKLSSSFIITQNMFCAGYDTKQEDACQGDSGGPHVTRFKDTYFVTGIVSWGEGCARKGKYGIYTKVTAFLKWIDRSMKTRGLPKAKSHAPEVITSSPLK

For `CC(C)c1ccc(CCN(C)S(=O)(=O)c2cc(C(=N)N)ccc2O)cc1`, the Ki at Trypsin is 0.77 µM; on Coagulation factor X, 0.059 µM.
For `CC(C)c1ccc(CCNS(=O)(=O)c2cc(/C(N)=N/O)ccc2O)cc1`, in data set [1], the bioavailability was 6.6%. The same molecule came in with a Ki on Coagulation factor X of 7.3 µM. For the same molecule, the Activity in the data set with Rattus norvegicus is given as 1%. The clearance in [2] came to 27 mL/min.
`CC(C)c1ccc(CCN(CC(=O)O)S(=O)(=O)c2cc(C(=N)N)ccc2O)cc1`: the affinity at Coagulation factor X, expressed as Ki, was 0.014 µM. Moreover, the clearance in [2] and in data set [3] was 8.1 mL/min throughout. Besides, the Activity in the data set with Plasma was 1.4 µM.
Take `CCOC(=O)CN(CCc1ccc(C(C)C)cc1)S(=O)(=O)c1cc(/C(N)=N/O)ccc1O`: the bioavailability in [1] was < 1%. The Ki on Coagulation factor X turned out to be 3.7 µM.
The molecule `CS(=O)(=O)c1ccccc1-c1ccc(CCNS(=O)(=O)c2cc(C(=N)N)ccc2O)c(OCC(=O)O)c1` yielded a clearance in data set [2] of 7.5 mL/min.
Take `CS(=O)(=O)c1ccccc1-c1ccc(CCNS(=O)(=O)c2cc(C(=N)N)ccc2O)c(NCC(=O)O)c1`: the Ki on Coagulation factor X came out at 0.0057 µM. Moreover, in data set [2], the clearance was found to be 25 mL/min.
In turn, `CC(C)(C)c1ccc(CCNS(=O)(=O)c2cc(C(=N)N)ccc2O)cc1` registered a Ki on Coagulation factor X of 0.027 µM.
For `CC(C)c1ccc(CCNS(=O)(=O)c2cc(C(=N)N)ccc2Cl)cc1`, the values for the Ki on Trypsin and on Coagulation factor X were 4 µM and 3 µM, respectively.
For `COc1ccc(C(=N)N)cc1S(=O)(=O)NCCc1ccc(C(C)C)cc1`, the affinity at Coagulation factor X corresponds to a Ki of 14 µM.
As for `CCOC(=O)COc1cc(C(C)C)ccc1CCNS(=O)(=O)c1cc(C(=N)NO)ccc1O`, in the data set with Mus musculus, the ED50 amounted to 15.8 mg/kg. In addition, the bioavailability in data set [1] came to 13%. Besides, affinity on Coagulation factor X was put at a Ki of 3.5 µM.
In turn, `CC(C)c1ccc(CCNS(=O)(=O)c2cc(C(=N)N)ccc2O)c(NCC(=O)O)c1` gave a Ki on Coagulation factor X of 0.062 µM. Besides, the clearance in [2] stood at 3.2 mL/min.
On Coagulation factor X, `CC(C)c1ccc(CCNS(=O)(=O)c2cc(C(=N)N)ccc2O)c(OCC(=O)O)c1` gave a Ki of 0.051 µM. This molecule showed a clearance in [2] of 1.7 mL/min. For the same molecule, the Activity with Plasma was 7.2 µM. The same molecule showed a bioavailability in data set [4] of 38%.
In turn, `CC(C)c1ccc(CCNS(=O)(=O)c2cc(/C(N)=N/O)ccc2O)c(OCC(=O)O)c1` returned a bioavailability in data set [1] of 9.2%. In addition, on Coagulation factor X, the Ki was > 10 µM. Besides, in the data set with Rattus norvegicus, the Activity was found to be 57%. For the same molecule, the clearance in [2] is 7.5 mL/min.
`CC(C)c1ccc(CCNS(=O)(=O)c2cc(C(=N)N)ccc2O)c(NC(=O)C(=O)O)c1` had a Ki on Coagulation factor X of 0.0097 µM. In data set [2], this molecule showed a clearance of 20 mL/min.
As for `CS(=O)(=O)c1ccccc1-c1ccc(CCNS(=O)(=O)c2cc(C(=N)N)ccc2O)c(OCC(=O)O)c1.Cl`, the Ki was 57.8 µM at Prothrombin and 1.17 µM on Trypsin. The Activity in the data set with Plasma was determined as 1.01 µM.
As for `CC(=N)N1CCC(c2ccc(NC(=O)CN(Cc3cccc(OCC(=O)O)c3)c3cccc(C(=N)N)c3)cc2)CC1`, the Ki at Prothrombin came to 26 µM; at Trypsin it was 6.17 µM. The molecule further returned a bioavailability in [1] of 0.9%. Moreover, the clearance in data set [2] is 23 mL/min. In addition, the Activity in the data set on Plasma amounted to 0.84 µM.
Turning to `CC(C)c1ccc(CCNS(=O)(=O)c2cc(C(=N)N)ccc2O)cc1`, the Ki was > 10 µM at Prothrombin, 0.8 µM on Trypsin and 0.029 µM at Coagulation factor X. In data set [1], this molecule yielded a bioavailability of 3.7%. This molecule showed a clearance in data set [2] of 27 mL/min. Moreover, the Activity with Plasma came out at 2.6 µM.
As for `CCCCOC(=O)COc1cc(-c2ccccc2S(C)(=O)=O)ccc1CCNS(=O)(=O)c1cc(C(=N)NO)ccc1O.Cl`, the bioavailability in data set [5] came to 15%; in data set [6], 23%; in data set [7] it was 11%; in [8], 4.9%.
On Coagulation factor X, `CC(C)c1ccc(CCN(CC(=O)O)S(=O)(=O)c2cc(/C(N)=N/O)ccc2O)cc1` registered a Ki of 7 µM. For the same molecule, in the data set on Rattus norvegicus, the Activity turned out to be 16%. Further, the clearance in data set [2] stood at 13 mL/min.
In the case of `CC(C)c1ccc(CCNS(=O)(=O)c2cccc(C(=N)N)c2)cc1`, the inhibition constant (Ki) at Prothrombin is > 10 µM; on Coagulation factor X it was 2.1 µM. In addition, the IC50 against Trypsin was 9.7 µM.
For the molecule `CC(C)Oc1ccc(CCNS(=O)(=O)c2cc(C(=N)N)ccc2O)cc1`, the Ki is > 10 µM at Prothrombin and 0.1 µM at Coagulation factor X. The same molecule returned an IC50 at Trypsin of 1.7 µM.

Source of the values: ChEMBL document CHEMBL1156579, “Orally active factor Xa inhibitors: investigation of a novel series of 3-amidinophenylsulfonamide derivatives using an amidoxime prodrug strategy” (Bioorg Med Chem Lett, 2008).
